Experimental data from US9492554B2, “Methods and compositions related to viral inhibition” (Clemson University Research Foundation (CURF), priority 2009, dated 2016).
Like-named read-outs stand apart in the source and are kept apart here.

Assays:
TAR RNA [1] = details: inhibition of Tat peptide binding to the TAR RNA; cited from earlier work
HIV-1 RRE RNA = HIV-1 RRE RNA competition binding assay (fluorescence polarization, Rev peptide probe); details: 100 nM RRE RNA, 10 nM Rev peptide, 25° C., 1 hour; Table 16
Protocol: Before used, HIV-1 RRE RNA (5′-GGUCUGGGCGCAGCGCAAGCUGACGGUACAGGCC-3′, Thermo Scientific) in 10 μM batch in sterile water was heated to 95° C. for 3 min, and then cooled to ambient temperature over 1 hour.
The relative affinity of each compound for HIV-1 RRE RNA was determined using fluorescence polarization-based competitive binding assay with a fluorescein-labeled HIV-1 Rev peptide. The anisotropy experiments were performed with a Spectra Max Fluorimeter (Molecular Devices) at 25° C., with excitation and emission wavelengths of 485 and 525 nm, respectively. All samples were prepared in 96 well plates in binding buffer (30 mM Hepes, 100 mM KCl, 40 mM NaCl, 10 mM NH4OAc, 10 mM Guanidinium Hydrochloride, 2 mM MgCl2, 0.5 mM EDTA, pH 7.4) with 0.01% triton-X100 (Sigma). The binding data reported for each conjugate are the averages of 3˜5 individual measurements.
A solution of 100 nM RRE RNA and 10 nM fluorescein-labeled HIV-1 Rev peptide was incubated at 25° C. After 10 min, appropriate concentrations (0 nM to 500 μM) of the antagonists were added; total volume of the incubation solution was […]. After 1 hour, the amount of the dissociated fluorescent probe was determined by the Spectra Max fluorescence plate reader. The experimental dose-response data for a given antagonist were fit to a sigmoidal dose-response nonlinear regression model on GraphPad Prism 4.0 to afford the IC50 values for each conjugates (Table 16).

HIV-1 TAR RNA = HIV-1 TAR RNA competition FRET binding assay (Tat peptide probe); details: 100 nM TAR RNA, 100 nM Tat peptide, 25° C., 60 min
Protocol: Before used, HIV-1 TAR RNA (5′-GGC AGA UCUGAG CCU GGG AGC UCU CUG CC-3′, Thermo Scientific) in 10 μM batch in sterile water was heated to 95° C. for 4.5 min, and then cooled rapidly in ice bath for 5 min. This snap-cooling causes the RNA to adopt the kinetically favored hairpin rather than thermodynamically favored duplexes.
The relative affinity of each polyamine for HIV-1 TAR RNA was determined using Fluorescence Resonance Energy Transfer (FRET)-based competitive binding assay with a fluorescein-labeled HIV-1 Tat peptide as described in the literature. The fluorescence experiments were performed with a Spectra Max Fluorimeter (Molecular Devices) at 25° C., with excitation and emission wavelengths of 495 and 570 nm, respectively. All samples were prepared in 96 well plates in 1×TK buffer (50 mM Tris, 20 mM KCl, pH=7.4) with 0.1% Trixton-100 (Sigma).
To a solution of 100 nM HIV-1 TAR RNA and 100 nM fluorescein-labeled HIV-1 Tat peptide, appropriate concentrations (0 nM to 100 μM) of the antagonists were added at 25° C.; total volume of the incubation solution was 80 μL. After 60 min, fluorescence changes of the sample solution were determined by the Spectra Max Fluorimeter Detector.

cells = test: 5% Toxicity concentration (concentration at which 5% or less cell death is seen)
HIV = test: Protection from HIV cytopathic effects; format: cell-based; details: for Maximum protection: maximum protection from HIV cytopathic effects, water control 2%; for concentration at which maximum protection achieved, microM: value in parentheses beside maximum protection
[2] = molecular target: site 1 thymidylate synthetase RNA; details: CC bubble of site 1 thymidylate synthetase RNA; read-out: binding constant; cited from earlier work
TAR [3] = details: ligands to TAR, from UV melting studies
Protocol: The bottom line represents the control which is TAR without any ligands. […] The reactions were done in the presence of 10 mM sodium cacodylate, 0.5 mM EDTA, 0.1 mM MgCl2 pH 7.0. The heating rate was 0.3° C./min.
(§1) UV melting studies of TAR were performed in the presence and absence of various ligands (FIG. 13).

TAR [4] = details: argininamide binding site of TAR; read-out: binding constant; cited from earlier work
TAR RNA [5] = test: UV melting of TAR RNA in presence of ligands (Tm, ΔTm); format: binding, HIV-1; details: Melting point stabilization of HIV-TAR RNA by Neo Neo dimers; Table 11
Protocol: The reactions were done in the presence of 10 mM sodium cacodylate, 0.5 mM EDTA, 0.1 mM MgCl2 pH 7.0. The heating rate was 0.3° C./min.
as §1

TAR [6] = details: binds TAR; read-out: affinity; cited from earlier work
TAR RNA [7] = test: ITC titration of TAR RNA with Neomycin; format: binding, HIV-1; details: 20° C.

## [H]/N=C(/N)N[C@H]1[C@H](O)[C@@H](O)[C@H](O[C@@H]2O[C@@H](C)[C@](O)(C=O)[C@H]2O[C@@H]2O[C@@H](CO)[C@H](O)[C@@H](O)[C@@H]2NC)[C@@H](N/C(N)=N\[H])[C@@H]1O [DPA 506, streptomycin, reference compound]
TAR RNA [1]
  IC50: 9.5 ± 0.8 µM
HIV-1 RRE RNA
  IC50: > 500 µM
HIV-1 TAR RNA; Table 18
  IC50: 17.4 ± 4.3 µM

## CN1CCN(c2ccc3[nH]c(-c4ccc5[nH]c(-c6ccc(O)cc6)nc5c4)nc3c2)CC1 [Hoechst 33258]
cells
  5% Toxicity microM: 18 µM
HIV
  Maximum protection: 2%
  concentration at which maximum protection achieved, microM: (2) microM
[2]
  Kd: < 0.1 µM
TAR [3]
  Binding Constant: 420000 M⁻¹
HIV-1 TAR RNA; Table 17
  IC50: 6.6 ± 1.5 µM

## N=C(N)NCCC[C@H](N)C(N)=O [argininamide]
TAR [4]
  Kd: ~0.001 µM

## neomycin
TAR RNA [1]
  IC50: 0.92 ± 0.09 µM
TAR RNA [5]
  ΔTm: 0.2 °C
TAR [6]
  Kd: ~6 µM
HIV
  Maximum protection: 9%
  concentration at which maximum protection achieved, microM: (206) microM
TAR [3]
  Binding Constant: 170000 M⁻¹
HIV-1 TAR RNA; Table 17
  IC50: 0.713 ± 0.165 µM
TAR RNA [7]
  K: (6.61 ± 0.84) × 10^5
